Reference: publication PMC10802846 (Cell chemical biology, 2023)
Entries after “also recorded” stand apart in the source; their conditions may differ. Where two headings read alike, the source gives them in different places. Residues, ends and D or L forms follow the SMILES beside them. *: point of attachment. Cbz = O=C(OCc1ccccc1)*

Key:
[1] = molecular target: HDAC3 (Homo sapiens, UniProt O15379+P40337); experiment: HDAC3 degradation by Western blot in MDA-MB-231 cells; assay type: cell-based
[2] = molecular target: T1, HDAC8 (Homo sapiens, UniProt Q9BY41); experiment: HDAC activity assay; assay type: biochemical
T1 sequence (Q9BY41 1-377): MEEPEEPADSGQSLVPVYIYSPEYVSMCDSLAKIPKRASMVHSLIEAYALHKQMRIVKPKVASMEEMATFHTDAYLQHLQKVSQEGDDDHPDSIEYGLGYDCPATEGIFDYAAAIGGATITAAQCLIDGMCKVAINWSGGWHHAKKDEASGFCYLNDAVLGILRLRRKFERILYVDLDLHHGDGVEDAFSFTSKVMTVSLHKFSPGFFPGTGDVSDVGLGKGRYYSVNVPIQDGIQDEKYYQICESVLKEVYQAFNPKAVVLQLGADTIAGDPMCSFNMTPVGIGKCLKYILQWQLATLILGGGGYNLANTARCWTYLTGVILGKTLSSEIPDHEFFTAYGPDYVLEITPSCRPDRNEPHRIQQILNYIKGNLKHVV

[3] = test system: MDA-MB-231; experiment: Colony formation assay, MDA-MB-231; assay type: cell-based, human
[4] = test system: MDA-MB-231 cells; experiment: RNA-seq differential gene expression; assay type: cell-based, human; settings: for number of downregulated genes / number of upregulated genes: 24 h, fold-change≥|2|, p ≤ 0.01
[5] = test system: BC cell lines; experiment: Colony formation assays, comparison across several BC cell lines; assay type: cell-based, human; settings: alone or in combination
[6] = test system: HDAC1/3/8; experiment: HDAC1/3/8 inhibitory activity in vitro, statements across the three isozymes; assay type: biochemical; settings: for HDAC1/3/8 inhibitory potency and selectivity: warhead analogues
[7] = molecular target: T1, HDAC8; experiment: HDAC8 degradation by Western blot in MDA-MB-231 cells; assay type: cell-based
[8] = test system: p21; experiment: p21 induction by Western blot in MDA-MB-231 cells; assay type: cell-based, human; settings: MDA-MB-231, 16 h
[9] = test system: acetylated core histones (H3K27ac, H2BK5ac, and H4K8ac); experiment: Histone acetylation by Western blot; assay type: cell-based, human
[10] = test system: H1299; experiment: Colony formation assay, H1299; assay type: cell-based, human
[11] = test system: caspase 3 (CASP3); experiment: CASP3 cleavage; assay type: cell-based, human; settings: MDA-MB-231, 16 h
[12] = test system: acetylated SMC3; experiment: Acetylated SMC3 by Western blot in MDA-MB-231 cells; assay type: cell-based, human; settings: YX968 16 nM, 14 h
[13] = test system: HCC1806; experiment: Colony formation assay, HCC1806; assay type: cell-based, human
[14] = molecular target: HDAC1 and the VHL complex (Homo sapiens, UniProt Q13547); experiment: AlphaLISA ternary complex formation, HDAC1; assay type: binding; settings: broad range of YX968 concentrations
[15] = test system: T47D; experiment: Colony formation assay, T47D; assay type: cell-based, human
[16] = test system: cell cycle progression; experiment: Cell cycle profiling; assay type: cell-based; settings: 24 h
[17] = molecular target: T2, HDAC1 (Homo sapiens, UniProt Q13547); experiment: HDAC activity assay; assay type: biochemical
[18] = test system: MDA-MB-468; experiment: Colony formation assay, MDA-MB-468; assay type: cell-based, human
[19] = molecular target: HDAC2 (Homo sapiens, UniProt Q92769); experiment: HDAC2 protein level by Western blot in MCF7 and MDA-MB-231 cells; assay type: cell-based
[20] = test system: BT549; experiment: Colony formation assay, BT549; assay type: cell-based, human
[21] = test system: MCF7; experiment: Colony formation assay, MCF7; assay type: cell-based, human
[22] = molecular target: T2, HDAC1; experiment: HDAC1 protein level by Western blot in MCF7 and MDA-MB-231 cells; assay type: cell-based
[23] = pretreatment with probe, then YX968, MDA-MB-231
[24] = q-value ≤0.05 and fold-change ≥|2.0|

T2 sequence (Q13547 whole entry): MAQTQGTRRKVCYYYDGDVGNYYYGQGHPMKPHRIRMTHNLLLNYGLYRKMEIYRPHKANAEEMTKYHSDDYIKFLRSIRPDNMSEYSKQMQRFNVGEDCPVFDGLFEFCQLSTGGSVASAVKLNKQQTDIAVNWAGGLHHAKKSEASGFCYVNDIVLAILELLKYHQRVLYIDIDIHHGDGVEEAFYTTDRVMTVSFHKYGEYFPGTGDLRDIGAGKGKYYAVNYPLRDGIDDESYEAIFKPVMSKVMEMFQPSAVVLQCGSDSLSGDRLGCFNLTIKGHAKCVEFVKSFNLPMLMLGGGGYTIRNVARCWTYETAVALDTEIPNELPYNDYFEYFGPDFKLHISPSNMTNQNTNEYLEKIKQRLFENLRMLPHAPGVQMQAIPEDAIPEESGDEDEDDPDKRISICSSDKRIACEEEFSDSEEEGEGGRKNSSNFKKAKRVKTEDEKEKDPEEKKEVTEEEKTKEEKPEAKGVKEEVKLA
Chain of HDAC3 (O15379 whole entry): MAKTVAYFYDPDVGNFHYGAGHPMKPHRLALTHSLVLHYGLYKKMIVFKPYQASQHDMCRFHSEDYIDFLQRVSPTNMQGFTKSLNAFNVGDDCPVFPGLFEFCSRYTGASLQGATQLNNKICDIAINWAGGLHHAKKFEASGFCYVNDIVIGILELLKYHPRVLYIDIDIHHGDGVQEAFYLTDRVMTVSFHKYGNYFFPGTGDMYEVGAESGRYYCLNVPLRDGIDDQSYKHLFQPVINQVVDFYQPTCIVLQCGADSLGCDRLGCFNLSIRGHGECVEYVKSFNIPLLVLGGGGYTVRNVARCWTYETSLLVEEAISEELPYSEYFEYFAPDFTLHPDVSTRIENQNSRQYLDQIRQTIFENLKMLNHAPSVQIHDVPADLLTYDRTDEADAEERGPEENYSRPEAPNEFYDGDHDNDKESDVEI
Chain of HDAC3 (O75376 whole entry partner): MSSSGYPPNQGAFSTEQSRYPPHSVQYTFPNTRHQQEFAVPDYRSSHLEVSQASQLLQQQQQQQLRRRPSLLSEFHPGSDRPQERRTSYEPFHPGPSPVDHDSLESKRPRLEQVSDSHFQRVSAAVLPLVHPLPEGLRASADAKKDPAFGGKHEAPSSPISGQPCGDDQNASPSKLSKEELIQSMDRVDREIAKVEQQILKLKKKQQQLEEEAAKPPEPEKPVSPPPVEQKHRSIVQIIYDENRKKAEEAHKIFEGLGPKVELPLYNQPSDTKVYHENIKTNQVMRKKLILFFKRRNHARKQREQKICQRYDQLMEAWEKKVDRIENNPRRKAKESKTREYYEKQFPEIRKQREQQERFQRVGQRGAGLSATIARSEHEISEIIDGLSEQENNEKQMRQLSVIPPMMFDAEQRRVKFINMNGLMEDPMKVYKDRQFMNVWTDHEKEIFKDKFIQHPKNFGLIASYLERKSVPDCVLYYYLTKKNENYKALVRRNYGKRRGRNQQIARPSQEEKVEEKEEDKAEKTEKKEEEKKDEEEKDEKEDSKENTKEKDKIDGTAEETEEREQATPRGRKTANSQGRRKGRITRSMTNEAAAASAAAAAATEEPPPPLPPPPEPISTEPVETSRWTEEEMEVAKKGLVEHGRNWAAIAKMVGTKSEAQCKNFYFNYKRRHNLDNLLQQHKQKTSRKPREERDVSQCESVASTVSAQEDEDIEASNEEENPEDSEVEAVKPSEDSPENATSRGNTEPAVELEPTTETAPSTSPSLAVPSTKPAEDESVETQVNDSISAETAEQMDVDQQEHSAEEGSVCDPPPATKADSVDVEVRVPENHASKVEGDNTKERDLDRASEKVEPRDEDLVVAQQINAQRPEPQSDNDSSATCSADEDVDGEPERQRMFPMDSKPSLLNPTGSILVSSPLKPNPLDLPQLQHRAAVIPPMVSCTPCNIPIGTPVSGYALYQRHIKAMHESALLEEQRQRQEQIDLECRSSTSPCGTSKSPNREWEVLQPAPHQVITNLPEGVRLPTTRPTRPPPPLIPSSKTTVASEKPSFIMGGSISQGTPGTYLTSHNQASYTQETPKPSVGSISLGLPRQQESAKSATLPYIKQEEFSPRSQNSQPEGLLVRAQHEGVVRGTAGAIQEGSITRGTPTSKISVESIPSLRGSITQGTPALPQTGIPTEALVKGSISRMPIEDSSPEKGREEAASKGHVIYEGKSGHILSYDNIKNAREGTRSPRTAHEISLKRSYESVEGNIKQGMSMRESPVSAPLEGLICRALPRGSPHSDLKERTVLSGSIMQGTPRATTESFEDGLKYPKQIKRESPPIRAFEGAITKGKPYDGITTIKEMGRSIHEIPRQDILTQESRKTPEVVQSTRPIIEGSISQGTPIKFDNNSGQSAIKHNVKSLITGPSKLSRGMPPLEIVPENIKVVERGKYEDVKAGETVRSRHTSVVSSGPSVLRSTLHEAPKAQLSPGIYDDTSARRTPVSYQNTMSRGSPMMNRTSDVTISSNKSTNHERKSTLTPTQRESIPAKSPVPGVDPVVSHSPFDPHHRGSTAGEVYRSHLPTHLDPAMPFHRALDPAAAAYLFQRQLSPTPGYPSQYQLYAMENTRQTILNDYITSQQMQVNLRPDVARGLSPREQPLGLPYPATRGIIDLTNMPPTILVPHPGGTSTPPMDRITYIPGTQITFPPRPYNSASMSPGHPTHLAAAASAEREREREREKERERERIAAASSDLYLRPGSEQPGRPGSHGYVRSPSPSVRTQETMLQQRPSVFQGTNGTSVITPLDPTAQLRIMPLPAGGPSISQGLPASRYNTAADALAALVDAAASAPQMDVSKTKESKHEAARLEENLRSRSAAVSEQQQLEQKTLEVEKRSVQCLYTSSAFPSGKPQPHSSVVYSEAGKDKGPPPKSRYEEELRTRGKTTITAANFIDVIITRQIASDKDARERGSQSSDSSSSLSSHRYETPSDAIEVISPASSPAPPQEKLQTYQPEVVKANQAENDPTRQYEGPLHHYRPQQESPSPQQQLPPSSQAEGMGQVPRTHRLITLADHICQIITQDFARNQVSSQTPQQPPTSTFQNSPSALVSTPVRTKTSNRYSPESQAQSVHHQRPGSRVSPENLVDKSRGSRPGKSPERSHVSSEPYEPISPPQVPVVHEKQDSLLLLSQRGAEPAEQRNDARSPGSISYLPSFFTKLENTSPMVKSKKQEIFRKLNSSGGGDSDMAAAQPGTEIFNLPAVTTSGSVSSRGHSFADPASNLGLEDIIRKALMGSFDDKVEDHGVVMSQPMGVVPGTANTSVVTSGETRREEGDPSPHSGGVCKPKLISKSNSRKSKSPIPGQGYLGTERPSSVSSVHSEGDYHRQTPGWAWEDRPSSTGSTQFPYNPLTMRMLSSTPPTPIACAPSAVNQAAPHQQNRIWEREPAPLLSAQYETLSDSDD
Chain of HDAC3 (P40337 whole entry): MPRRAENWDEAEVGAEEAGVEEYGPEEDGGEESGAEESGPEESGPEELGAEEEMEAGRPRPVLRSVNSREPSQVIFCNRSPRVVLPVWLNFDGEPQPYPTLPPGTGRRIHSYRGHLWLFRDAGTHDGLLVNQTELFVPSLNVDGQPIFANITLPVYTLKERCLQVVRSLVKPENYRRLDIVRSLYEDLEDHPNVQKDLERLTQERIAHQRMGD
Chain of HDAC3 (Q15370 whole entry partner): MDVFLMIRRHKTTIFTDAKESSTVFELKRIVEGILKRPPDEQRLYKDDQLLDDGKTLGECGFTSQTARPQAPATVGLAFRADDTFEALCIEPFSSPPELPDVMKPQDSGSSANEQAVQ
Chain of HDAC3 (Q15369 whole entry partner): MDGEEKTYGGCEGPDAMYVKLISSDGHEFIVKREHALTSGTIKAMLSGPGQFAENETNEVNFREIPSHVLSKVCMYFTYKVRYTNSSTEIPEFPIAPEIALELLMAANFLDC
Chain of HDAC2 (Q92769 whole entry): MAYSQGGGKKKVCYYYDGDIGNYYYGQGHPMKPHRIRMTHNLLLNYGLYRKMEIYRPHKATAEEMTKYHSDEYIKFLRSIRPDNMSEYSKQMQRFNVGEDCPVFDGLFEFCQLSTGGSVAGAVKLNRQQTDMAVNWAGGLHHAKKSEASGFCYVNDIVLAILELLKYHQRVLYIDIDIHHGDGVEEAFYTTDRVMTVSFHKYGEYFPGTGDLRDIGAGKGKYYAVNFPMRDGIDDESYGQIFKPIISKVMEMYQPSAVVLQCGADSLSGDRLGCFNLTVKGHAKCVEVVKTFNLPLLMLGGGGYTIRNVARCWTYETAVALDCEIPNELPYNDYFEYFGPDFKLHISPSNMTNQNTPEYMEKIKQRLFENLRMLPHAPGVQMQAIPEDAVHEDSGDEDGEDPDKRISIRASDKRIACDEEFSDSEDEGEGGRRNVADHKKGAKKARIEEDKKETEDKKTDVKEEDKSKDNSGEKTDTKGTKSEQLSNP
Chain of HDAC1 and the VHL complex (Q13547 whole entry, one chain of several): as the sequence (Q13547 whole entry) above

## CC(C)C[C@H](NC(=O)[C@H](Cc1ccccc1)NC(=O)c1cnccn1)B(O)O [bortezomib]
[1]; [23]
  effect of pretreatment on YX968-mediated HDAC3 degradation: could also reverse

## CCCNNC(=O)c1ccc(-c2ccc(NC(=O)CCCCCCC(=O)N[C@H](C(=O)N3C[C@H](O)C[C@H]3C(=O)N[C@@H](C)c3ccc(-c4scnc4C)cc3)C(C)(C)C)cc2)cc1 [XZ9002, reference compound]
[2]
  IC50: 1090 nM
[3]; MDA-MB-231, 3 μM
  inhibition of clonogenic growth: moderate inhibition

## CCCCNNC(=O)c1ccc(Br)cc1 [UF010]
[4]; UF010 treatment
  number of downregulated genes: 761
  number of upregulated genes: 2,678
[4]; [24]
  number of downregulated DEGs: 572
  number of upregulated DEGs: 1,792

## Nc1cc(F)ccc1NC(=O)/C=C/c1cnn(C/C=C/c2ccccc2)c1 [RGFP-966]
[5]
  potency to suppress cell growth vs YX968: less potent than YX968

## CCCNNC(=O)c1ccc(N2CCN(C(C)=O)CC2)cc1 [compound 14, 4-(4-acetylpiperazin-1-yl)-N′-propylbenzohydrazide]
[6]; HDAC1, HDAC3, HDAC8
  fold less potent than 15 for the three HDAC isozymes: 3- to 7 fold
[6]
  HDAC1/3/8 inhibitory potency and selectivity: preferentially inhibited HDAC3

## CC(C)C[C@@H](C=O)NC(=O)[C@H](CC(C)C)NC(=O)[C@H](CC(C)C)NC(=O)OCc1ccccc1 [MG132] (Cbz-Leu-Leu-Leu-aldehyde)
[7]; [23]
  effect of pretreatment on YX968-mediated HDAC8 degradation: blocked
[7]; probe at 3 μM
  effect of pretreatment on YX968-mediated HDAC8 degradation: effectively blocked
[1]; [23]
  effect of pretreatment on YX968-mediated HDAC3 degradation: blocked
[1]; probe at 3 μM
  effect of pretreatment on YX968-mediated HDAC3 degradation: only moderately reversed
[1]; probe at 10 μM
  effect of pretreatment on YX968-mediated HDAC3 degradation: more effectively rescued

## CC(=O)N[C@H](C(=O)N1C[C@H](O)C[C@H]1C(=O)NCc1ccc(-c2scnc2C)cc1)C(C)(C)C [VH032]
[7]; [23]
  effect of pretreatment on YX968-mediated HDAC8 degradation: effectively competed

## CCCNNC(=O)c1ccc(N2CCN(CCCCCCCC(=O)N[C@H](C(=O)N3C[C@H](O)C[C@H]3C(=O)N[C@@H](C)c3ccc(-c4scnc4C)cc3)C(C)(C)C)CC2)cc1 [YX968, (2S,4R)-1-((S)-3,3-dimethyl-2-(8-(4-(4-(2-propylhydrazine-1-carbonyl)phenyl)piperazin-1-yl)octanamido)butanoyl)-4-hydroxy-N-((S)-1-(4-(4-methylthiazol-5-yl)phenyl)ethyl)pyrrolidine-2-carboxamide]
[8]
  concentration at which weak p21 induction was seen: 250 nM
[9]; MCF-7 and MDA-MB-231 cells
  levels of acetylated core histones: dose-dependently increased
[9]; MDA-MB-231, 16 h
  concentration at which H3K27ac was weakly detectable: 63 nM
[10]
  clonogenic growth sensitivity: quite resistant
[11]
  CASP3 cleavage (activation): in a dose-dependent manner
  concentration at which weak CASP3 activation was notable: 63 nM
[12]
  levels of acetylated SMC3: increased
[13]
  concentration at which clonogenic growth was effectively inhibited: 125 nM
[14]
  ternary complex formation with HDAC1: not able to induce a complex
[15]
  concentration at which clonogenic growth was effectively inhibited: 125 nM
[3]; MDA-MB-231
  clonogenic growth suppression: effectively suppressed at a sub-μM concentration
[16]; 0.1 μM
  effect on cell cycle: negligibly perturbed; also recorded: did not alter cell cycle
[16]; 1 μM
  effect on cell cycle: strong G1 arrest; also recorded: markedly induced G1 arrest
[17]
  IC50: 591 nM
[18]
  concentration at which clonogenic growth was effectively inhibited: 125 nM
[19]
  effect on HDAC2 protein level: did not affect; also recorded: not degraded
[20]
  concentration at which clonogenic growth was effectively inhibited: 125 nM
[21]
  concentration at which clonogenic growth was effectively inhibited: 125 nM
[4]; 50 nM
  number of downregulated genes: 41
  number of upregulated genes: 53
[4]; [24]
  significant DEGs: no significant DEGs
[22]
  effect on HDAC1 protein level: did not affect; also recorded: not degraded

## Cc1cc2c(C(N)=O)cccc2n1-c1nc2c(c(NCc3ccccc3)n1)COCC2 [CB-5803]
[7]
  effect of pretreatment on YX968-mediated HDAC8 degradation: effectively blocked
[1]
  effect of pretreatment on YX968-mediated HDAC3 degradation: only slightly rescued

## COc1ccc(Cn2ccc3ccc(C(=O)NO)cc32)cc1 [PCI 34051]
[5]
  potency to suppress cell growth vs YX968: less potent than YX968

## CCCNNC(=O)c1ccc(CN2CCN(C(C)=O)CC2)cc1 [compound 16, 4-((4-acetylpiperazin-1-yl)methyl)-N′-propylbenzohydrazide]
[6]
  HDAC1/3/8 inhibitory potency and selectivity: dramatic decline of selectivity and potency

## CC[C@H](NC(=O)[C@H](C)NC)C(=O)N1C[C@@H](O)C[C@H]1Cc1c(-c2[nH]c3cc(F)ccc3c2C[C@@H]2C[C@H](O)CN2C(=O)[C@H](CC)NC(=O)[C@H](C)NC)[nH]c2cc(F)ccc12 [birinapant, reference compound]
[11]
  CASP3 cleavage (activation): activated CASP3

## NS(=O)(=O)OC[C@@H]1C[C@@H](n2ccc3c(N[C@H]4CCc5ccccc54)ncnc32)C[C@@H]1O [MLN4924]
[7]; [23]
  effect of pretreatment on YX968-mediated HDAC8 degradation: highly effective in blocking
[1]; [23]
  effect of pretreatment on YX968-mediated HDAC3 degradation: highly effective in blocking

## CCCNNC(=O)c1ccc(N2CCN(C)CC2)cc1 [compound 15, 4-(4-methylpiperazin-1-yl)-N′-propylbenzohydrazide]
[6]
  HDAC1/3/8 inhibitory potency and selectivity: highest potency among all the new analogues
